Measurements reported in publication PMC12463534, “Exploring the Anticancer Properties of 4-Phenylthiazole-Based Ru(II) and Os(II) Metallacycles Featuring 1-Methylimidazole as N-Donor Functionality” (Bioinorganic Chemistry and Applications, 2025).
Like-named read-outs stand apart in the source and are kept apart here.

Legend:
[1] = tested on: SW480 colon adenocarcinoma cells; set-up: method as in PMID 38426897; details: MTT assay, exposure time 96 h; ref [5]; read-out: 50% inhibitory concentration SW480 (chlorido complexes, reference) (converted); cited from earlier work
[2] = tested on: CH1/PA-1 ovarian teratocarcinoma cells; set-up: method as in PMID 38426897; details: MTT assay, exposure time 96 h; ref [5]; read-out: 50% inhibitory concentration CH1 (chlorido complexes, reference) (converted); cited from earlier work
[3] = tested on: A549 lung adenocarcinoma cells; set-up: method as in PMID 38426897; details: MTT assay, exposure time 96 h; ref [5]; read-out: 50% inhibitory concentration A549 (chlorido complexes, reference) (converted); cited from earlier work
[4] = Solubility in 1% DMF/PBS
Text: Solubility is an important factor for the application of metallodrugs. DMF was used as solubilizer to allow comparison to the respective chlorido complexes where the usage of DMSO would lead to stable DMSO adducts.
(§1) As the coordinated p-cym and leaving groups are present in all synthesized complexes, we focused on the differently substituted 4-phenylthiazoles for estimated changes in lipophilicity.

[5] = tested on: SW480 colon adenocarcinoma cells; experiment: MTT assay, inhibition of cancer cell growth, SW480; details: read-out: 50% inhibitory concentration SW480, exposure time 96 h
Description: (§2) CH1/PA-1 ovarian teratocarcinoma cells (CH1, RRID: CVCL_4992, provided by L. R. Kelland, CRC Center for Cancer Therapeutics, Institute of Cancer Research, Sutton, UK; confirmed by STR profiling as PA-1 ovarian teratocarcinoma cells at Multiplexion, Heidelberg, Germany), SW480 colon adenocarcinoma (RRID: CVCL_0546), and A549 lung adenocarcinoma cells (NCI-H2618, RRID: CVCL_A549; both cell lines were obtained from the American Type Culture Collection (ATCC), Manassas, VA, USA) were grown as adherent cultures in 75-cm^2 culture flasks (Starlab, Hamburg, Germany) by using minimal essential medium (MEM) supplemented with 1 mM sodium pyruvate, 4 mM L-glutamine, 1% (v/v) nonessential amino acids from 100-fold stock (all purchased from Sigma-Aldrich), and 10% heat-inactivated fetal bovine serum (Serana, Pessin, Germany).
(§3) The 3-(4,5-dimethylthiazol-2-yl)-2,5-diphenyl-2H tetrazolium bromide (MTT, Acros Organics, Geel, Belgium) assay was used to detect the cytotoxicity of the compounds after 96-h incubation. For this purpose, cells were harvested from culture flasks by trypsinization, seeded in 100-μL aliquots into 96-well microculture plates (Starlab, UK) in densities of 1 × 10^3 (CH1/PA-1), 2 × 10^3 (SW480), and 3 × 10^3 (A549) cells per well and incubated for 24 h prior to exposure to the test compounds. Stock solutions of test compounds were prepared in DMF, which were then diluted in MEM (not to exceed a final content of 0.5% v/v of organic solvent in the test plates), and serial dilutions were added in aliquots of 100 μL per well. […] After incubation for 4 h, the medium/MTT mixtures were removed, and the produced formazan crystals were dissolved in 150 μL DMSO per well. Optical densities at 550 nm were measured spectrophotometrically with a ELx808 Absorbance Microplate Reader (Bio-Tek, Winooski, VT, USA) by using a reference wavelength of 690 nm to correct for unspecific absorption.

[6] = tested on: A549 lung adenocarcinoma cells; experiment: MTT assay, inhibition of cancer cell growth, A549; details: read-out: 50% inhibitory concentration A549, exposure time 96 h
Description: as §2, §3

[7] = tested on: SW480 cancer cells; experiment: Cellular accumulation (ICP-MS) in SW480 cells; details: 50 μM, 0.5% DMF in MEM, SW480, exposure time 2 h
Description: as §1
Cellular accumulation of the compounds was studied based on a method described previously with modifications. 1.8 × 10^5 SW480 cells per well were seeded in aliquots of 1 mL of complete MEM (see above) into 12-well plates (CytoOne, tissue culture treated, Starlab) and incubated at 37°C for 24 h. Then, cells were exposed for 2 h at 37°C to 50 μM solutions of the test compounds (containing 0.5% DMF) in fresh 0.5 mL of complete MEM upon exchange of the medium. Afterward, cells were washed three times with 1 mL PBS per well, lysed with 0.4 mL sub-boiled HNO3 per well for 1 h at room temperature, and 0.3 mL of each sample was diluted with 7.7 mL Milli-Q water. Adsorption/desorption controls were prepared in the same manner in cell-free wells. Ruthenium content was quantified by ICP-MS using an ICP-quadrupole MS Agilent 7800 instrument (Agilent Technologies, Waldbronn, Germany) as described previously.

[8] = tested on: CH1/PA-1 ovarian teratocarcinoma cells; experiment: MTT assay, inhibition of cancer cell growth, CH1/PA-1; details: read-out: 50% inhibitory concentration CH1, exposure time 96 h
Description: as §2, §3

[9] = tested on: G4 forming sequences (h-Telo, bcl2, hTERT, Kit1, Kit2) and dsDNA; experiment: FRET melting assay, G-quadruplex / B-DNA interaction; format: binding, human; details: 60 mM potassium cacodylate pH 7.4, 2 h incubation
Description: G4s are DNA secondary motifs that play crucial roles in cancer development. […] The complexes were incubated with different G4 forming sequences: one derived from human telomere-forming (h-Telo) and four corresponding to promoter regions of oncogenes, namely, bcl2, hTERT, Kit1, and Kit2. For comparison, a self-complementary sequence called dsDNA was used to represent B-DNA (Table S2).
FRET experiments were conducted using an Applied Biosystems QuantStudio 6 PCR cycler in a 96-well format equipped with a FAM (6-carboxyfluorescein) filter. Oligonucleotide stock solutions, labelled with FAM and TAMRA (6-carboxytetramethylrhodamine) probes, were diluted to the desired concentration in a 60-mM potassium cacodylate buffer (pH 7.4). To fold the oligonucleotides into their B-DNA or G4 topologies, the solutions were heated to 95°C for 5 min and then allowed to cool slowly to room temperature overnight. The final concentration of the oligonucleotides was 0.2 μM, with a total volume of 30 μL in each well. Metal complexes were dissolved in DMF to prepare 2 mM stock solutions and further diluted with the buffer, where DMF concentration never exceeded 0.05%. Mixtures of oligonucleotides and metal compounds were left at room temperature for 2 h. Data were collected twice, each time in duplicate, over a temperature range of 25°C–95°C, with a ramp of 1°C every 30 s. FAM emission data were normalized from 0 to 1 to compare different datasets. After data normalization, we extrapolated the T1/2 values, i.e., the temperature at which normalized FAM emission is 0.5. The DNA concentration is expressed in strands.

[10] = tested on: HCT116 colorectal cancer cell line (2D); experiment: Resazurin assay, HCT116 2D (monolayer) culture; details: read-out: IC50 2D, resazurin assay, 96 h exposure
Description: Both models were investigated by the fluorimetric resazurin assay after 96-h exposure.
HCT116 colorectal carcinoma cells (RRID:CVCL_0291 from ATCC) were cultivated in McCoy's 5A medium, supplemented with 10% heat-inactivated fetal bovine serum and 4 mM L-glutamine.
For 2D experiments, HCT116 cells were harvested from culture flasks by trypsinization, seeded in 100-μL aliquots into 96-well microculture plates (CytoOne, TC-treated, from Starlab) in densities of 2 × 10^3 cells per well, and incubated for 24 h prior to exposure to the test compounds. […] Stock solutions of test compounds were prepared in DMF, which were then diluted in McCoy's 5A-supplemented medium (not to exceed a final content of 0.5% v/v of organic solvent in the test plates), and serial dilutions were added in aliquots of 100 μL per well. […] After incubation for 4 h, fluorescence was measured with a microplate reader (Bio-Tek, SynergyHT) at a wavelength of 530 nm, additionally using a reference wavelength of 620 nm.

[11] = tested on: SW480 cells; experiment: DCFH-DA assay, cellular ROS levels; format: cell-based, human; details: for Effect on intracellular ROS levels: 2 h, concentration dependent
Description: For this approach, SW480 cells were subjected to the 2′,7′-dichlorofluorescin-diacetate (DCFH-DA) assay.
SW480 colon adenocarcinoma cells were trypsinized for 5 min in a humidified incubator at 37°C and under a 5% CO2 atmosphere. Supplemented MEM was added to stop trypsinization, and cells were centrifuged for 3 min at 1200 rpm (Heraeus Megafuge 1.0R). After cell counting, SW480 cells were seeded in 100-μL aliquots in densities of 2.5 × 10^4 cells/well into 96-well clear flat-bottom microplates (CytoOne, TC-treated, from Starlab). After incubation for 24 h, cells were washed with 200 μL of Hanks' balanced salt solution (HBSS; Sigma-Aldrich; supplemented with 1% heat-inactivated FCS). […] After washing cells with 200 μL of supplemented HBSS, serially diluted test compounds in phenol-red-free Opti-MEM (Gibco), supplemented with 1% heat-inactivated FCS, were added in 200-μl triplicates and tert-butyl hydroperoxide (TBHP) was applied as positive control. […] Blank-corrected values were calculated relative to negative controls (treated with drug-free supplemented Opti-MEM) from three independent experiments.

[12] = tested on: HCT116 multicellular tumor spheroids (3D); experiment: Resazurin assay, HCT116 3D multicellular tumor spheroids; details: read-out: IC50 3D; HCT116 3D spheroids, resazurin assay, 96 h exposure

| SMILES | IC50 [1] [µM] | IC50 [2] [µM] | IC50 [3] [µM] | IC50 [5] [µM] | IC50 [6] [µM] | IC50 [8] [µM] | also measured |
| --- | --- | --- | --- | --- | --- | --- | --- |
| Cc1ccc(C(C)C)cc1.Fc1ccc(-c2cscn2)[c]([Ru][Cl])c1 [Compound 1b] | 8.6 | 3.4 | 16 | – | – | – | – |
| COc1ccc(-c2cscn2)[c]([Ru][Cl])c1.Cc1ccc(C(C)C)cc1 [Compound 1e] | 17 | 7.3 | 27 | – | – | – | – |
| Cc1ccc(C(C)C)cc1.[Cl][Os][c]1ccccc1-c1cscn1 [Compound 2a] | 9.3 | 3 | 17 | – | – | – | – |
| Cc1ccc(C(C)C)cc1.Fc1ccc(-c2cscn2)[c]([Os][Cl])c1 [Compound 2b] | 7.1 | 2 | 10 | – | – | – | – |
| CS(=O)(=O)c1ccc(-c2cscn2)[c]([Os][Cl])c1.Cc1ccc(C(C)C)cc1 [Compound 2c] | 4.4 | 0.83 | 10 | – | – | – | – |
| Cc1ccc(-c2cscn2)[c]([Os][Cl])c1.Cc1ccc(C(C)C)cc1 [Compound 2d] | 9.3 | 3.7 | 17 | – | – | – | – |
| COc1ccc(-c2cscn2)[c]([Os][Cl])c1.Cc1ccc(C(C)C)cc1 [Compound 2e] | 7.1 | 2.2 | 14 | – | – | – | – |
| Cc1ccc(C(C)C)cc1.Cn1cc[n+]([Ru-]2[c]3cc(F)ccc3-c3csc[n+]32)c1.O=[N+]([O-])[O-] [Compound 3b, [((3-κN)-1-Methylimidazole)(4-(4-fluorophenyl)thiazolato-κN,κC2′)(η^6-p-cymene)ruthenium(II)] Nitrate] | – | – | – | 7.9 ± 1.5 | 20 ± 3 | 2.8 ± 0.2 | Solubility [4]: 8.82 mM; Cellular accumulation, fg Ru/cell [7]: 470 ± 71 fg Ru/cell |
| Cc1ccc(C(C)C)cc1.Cc1ccc2[c](c1)[Ru-]([n+]1ccn(C)c1)[n+]1cscc1-2.O=[N+]([O-])[O-] [Compound 3d, [((3-κN)-1-Methylimidazole)(4-(4-methylphenyl)thiazolato-κN,κC2′)(η^6-p-cymene)ruthenium(II)] Nitrate] | – | – | – | 3.8 ± 0.3 | 7.2 ± 1 | 1.61 ± 0.04 | Solubility [4]: 8.92 mM; Cellular accumulation, fg Ru/cell [7]: 477 ± 47 fg Ru/cell; Stabilization of oligonucleotides (G4s or B-DNA) [9]: No stabilization |
| COc1ccc2[c](c1)[Ru-]([n+]1ccn(C)c1)[n+]1cscc1-2.Cc1ccc(C(C)C)cc1.O=[N+]([O-])[O-] [Compound 3e, [((3-κN)-1-Methylimidazole)(4-(4-methoxyphenyl)thiazolato-κN,κC2′)(η^6-p-cymene)ruthenium(II)] Nitrate] | – | – | – | 5.5 ± 2.2 | 14 ± 1 | 1.8 ± 0.3 | Solubility [4]: 15.6 mM; Cellular accumulation, fg Ru/cell [7]: 246 ± 47 fg Ru/cell |
| Cc1ccc(C(C)C)cc1.Cn1cc[n+]([Os-]2[c]3ccccc3-c3csc[n+]32)c1.O=[N+]([O-])[O-] [Compound 4a, [((3-κN)-1-Methylimidazole)(4-phenylthiazolato-κN,κC2′)(η^6-p-cymene)osmium(II)] Nitrate] | – | – | – | 5.9 ± 1.9 | 12 ± 1 | 2.3 ± 0.2 | IC50 [10]: 9.6 ± 1.2 µM; Effect on intracellular ROS levels [11]: initially lowers ROS levels; IC50 [12]: 9.4 ± 4.6 µM |
| Cc1ccc(C(C)C)cc1.Cn1cc[n+]([Os-]2[c]3cc(F)ccc3-c3csc[n+]32)c1.O=[N+]([O-])O [Compound 4b, [((3-κN)-1-Methylimidazole)(4-(4-fluorophenyl)thiazolato-κN,κC2′)(η^6-p-cymene)osmium(II)] Nitrate] | – | – | – | 7.4 ± 2.3 | 20 ± 2 | 2.7 ± 0.2 | – |
| Cc1ccc(C(C)C)cc1.Cn1cc[n+]([Os-]2[c]3cc(S(C)(=O)=O)ccc3-c3csc[n+]32)c1.O=[N+]([O-])[O-] [Compound 4c, [((3-κN)-1-Methylimidazole)(4-(4-(methylsulfonyl)phenyl)thiazolato-κN,κC2′)(η^6-p-cymene)osmium(II)] Nitrate] | – | – | – | > 200 | > 200 | > 200 | IC50 [10]: > 200 µM; Effect on intracellular ROS levels [11]: initially lowers ROS levels; IC50 [12]: 344 ± 19 µM |
| Cc1ccc(C(C)C)cc1.Cc1ccc2[c](c1)[Os-]([n+]1ccn(C)c1)[n+]1cscc1-2.O=[N+]([O-])O [Compound 4d, [((3-κN)-1-Methylimidazole)(4-(4-methylphenyl)thiazolato-κN,κC2′)(η^6-p-cymene)osmium(II)] Nitrate] | – | – | – | 3.4 ± 0.9 | 7.1 ± 0.6 | 1.2 ± 0.2 | – |
| COc1ccc2[c](c1)[Os-]([n+]1ccn(C)c1)[n+]1cscc1-2.Cc1ccc(C(C)C)cc1.O=[N+]([O-])O [Compound 4e, [((3-κN)-1-Methylimidazole)(4-(4-methoxyphenyl)thiazolato-κN,κC2′)(η^6-p-cymene)osmium(II)] Nitrate] | – | – | – | 8.1 ± 2.6 | 24 ± 1 | 2.1 ± 0.5 | – |
| CC(C)(C)OO [positive control, tert-butyl hydroperoxide, reference compound] | – | – | – | – | – | – | Elevation of ROS levels vs negative control ([11]; positive control): more than 3 fold |
